Laboratory results: US20230159445A1, “STAT INHIBITORY COMPOUNDS AND COMPOSITIONS” (JANPIX LIMITED, priority 2020, published 2023)

Test system: MV4-11 cells
Assay: MV4-11 Cell Cytotoxicity Assay (CellTiter-Blue, 72 h)
Assay type: cell-based, human
Details: Homo sapiens, MV4-11; MV-4-11 cells
Procedure: In some embodiments, the potency of the STAT5 inhibitors are evaluated by an in vitro assay such as MV4-11 Cell Cytotoxicity Assay. […] 10,000 cells were plated per well in 96-well flat-bottom sterile culture plates with low-evaporation lids. After 24 h, inhibitors and a vehicle control (0.5% DMSO) were added and the cells were incubated for 72 h at 37° C. in 5% CO2. Inhibitors were examined in triplicate at a maximal concentration of 50 μM, followed by 1:2 dilutions in subsequent wells (25, 12.5, 6.25, 3.125, 1.5625, 0.78125, 0.390625, 0.195313 and 0.097656 μM). After 72 h, the wells were treated with CellTiter-Blue® (20 μL/well), and the plates were incubated using standard cell culture conditions for 1 hour. Fluorescence was measured at 560/590 nm.

With `CN(C)CCOc1cc(C(=O)O)ccc1N(Cc1cc(C2CC2)cc(C(C)(C)C)c1)C(=O)CN(Cc1ccccc1F)S(=O)(=O)c1c(F)c(F)c(F)c(F)c1F` [Compound 1101, 4-(N-(3-(tert-butyl)-5-cyclopropylbenzyl)-2-(N-(2-fluorobenzyl)-(2,3,4,5,6-pentafluoro-phenyl)sulfonamido)taceamido)-3-(2-(dimethylamino)ethoxy) benzoic acid] as the molecule, how does the IC50 read?
Its IC50 is 3160 to 100000 nM.

For `CN(C)c1cc(C(=O)O)ccc1N(Cc1cc(C2CC2)cc(C(C)(C)C)c1)C(=O)CN(Cc1c(F)c(F)c(F)c(F)c1F)S(=O)(=O)c1c(F)c(F)c(F)c(F)c1F` [Compound 1106, 4-(N-(3-(tert-butyl)-5-cyclopropylbenzyl)-2-(N-((perfluorophenyl)methyl)-(2,3,4,5,6-pentafluorophenyl)sulfonamido)acetamido)-3-(dimethylamino)benzoic acid], which IC50 is on record?
The IC50 was 0.01 to 316 nM.

With `CN(C)c1cc(C(=O)O)c(F)cc1N(Cc1cc(C2CC2)cc(C(C)(C)C)c1)C(=O)CN(Cc1c(F)c(F)c(F)c(F)c1F)S(=O)(=O)c1c(F)c(F)c(F)c(F)c1F` [Compound 1107, 4-(N-(3-(tert-butyl)-5-cyclopropylbenzyl)-2-(N-((perfluorophenyl)methyl)-(2,3,4,5,6-pentafluoro-phenyl)sulfonamido)acetamido)-5-(dimethylamino)-2-fluorobenzoic acid] as the molecule, how does the IC50 read?
The IC50 was 0.01 to 316 nM.

How did the IC50 turn out when `CC(C)(C)c1cc(CN(C(=O)CN(Cc2ccccc2C(F)(F)F)S(=O)(=O)c2c(F)c(F)c(F)c(F)c2F)c2ccc(C(=O)O)cc2C2CC2)cc(C2CC2)c1` [Compound 1112, 4-(N-(3-(tert-butyl)-5-cyclopropylbenzyl)-2-(N-(2-(trifluoromethyl)benzyl)-(2,3,4,5,6-pentafluoro-phenyl)sulfonamido)acetamido)-3-cyclopropylbenzoic acid] was run?
The IC50 was 0.01 to 316 nM.

With `CN(C)c1cc(C(=O)O)c(F)cc1N(Cc1cc(C2CC2)cc(C(C)(C)C)c1)C(=O)CN(Cc1ccccc1C(F)(F)F)S(=O)(=O)c1c(F)c(F)c(F)c(F)c1F` [Compound 1113, 4-(N-(3-(tert-butyl)-5-cyclopropylbenzyl)-2-(N-(2-(trifluoromethyl)benzyl)-(2,3,4,5,6-pentafluoro-phenyl)sulfonamido)acetamido)-5-(dimethylamino)-2-fluorobenzoic acid] as the molecule, how does the IC50 read?
Its IC50 is 316 to 1000 nM.

`COc1cc(C(N)=O)ccc1N(Cc1cc(C2CC2)cc(C(C)(C)C)c1)C(=O)CN(Cc1ccccc1F)S(=O)(=O)c1c(F)c(F)c(F)c(F)c1F` [Compound 1114, 4-(N-(3-(tert-butyl)-5-cyclopropylbenzyl)-2-(N-(2-fluorobenzyl)-(2,3,4,5,6-pentafluoro-phenyl)sulfonamido)acetamido)-3-methoxybenzamide] was tested. Which IC50 did it give?
Its IC50 is 316 to 1000 nM.

`CN(C)c1ccc(C(=O)O)cc1N(Cc1cc(C2CC2)cc(C(C)(C)C)c1)C(=O)CN(Cc1ccccc1F)S(=O)(=O)c1c(F)c(F)c(F)c(F)c1F` [Compound 1120, 3-(N-(3-(tert-butyl)-5-cyclopropylbenzyl)-2-(N-(2-fluorobenzyl)-(2,3,4,5,6-pentafluoro-phenyl)sulfonamido)acetamido)-4-(dimethylamino) benzoic acid] was tested. Which IC50 did it give?
Its IC50 is 316 to 1000 nM.

Which IC50 does the source give for `CN(C)c1cc(C(=O)O)ccc1N(Cc1cc(C2CC2)cc(C(C)(C)C)c1)C(=O)CN(Cc1c(F)cc(F)cc1F)S(=O)(=O)c1c(F)c(F)c(F)c(F)c1F` [Compound 1125, 4-(N-(3-(tert-butyl)-5 - cyclopropylbenzyl)-2-(N-(2,4,6-trifluorobenzyl)-(2,3,4,5,6-pentafluoro-phenyl)sulfonamido)acetamido)-3-(dimethylamino) benzoic acid] here?
The IC50 was 316 to 1000 nM.

How did the IC50 turn out when `O=C(O)c1ccc(N(Cc2ccccn2)C(=O)CN(Cc2ccccc2C(F)(F)F)S(=O)(=O)c2c(F)c(F)c(F)c(F)c2F)c(OC2CC2)c1` [Compound 1127, 3-cyclopropoxy-4-(2-(N-(2-(trifluoromethyl)benzyl)-(2,3,4,5,6-pentafluoro-phenyl)sulfonamido)-N-(pyridin-2-ylmethyl)acetamido) benzoic acid] was run?
Its IC50 is 1000 to 3160 nM.
